Source: PubChem BioAssay AID489033 (Sanford-Burnham Center for Chemical Genomics, 2010)
Active and inactive are the calls of the source. The rule behind the calls is not given here.

Each molecule was assayed on 697B B-cell line, NF-kB luciferase reporter luminescence (assay: NF-kB reporter inhibition in B cells, dose response, selectivity assay for T-cell antigen receptor NF-kB inhibitors, 697B cells, luminescence (AID 489033)).
With `Nc1nc(-c2ccccc2)cc(N2CCCCC2)n1` the IC50 was > 80 µM (inactive). In the case of `CCOc1cc(C#N)c(NC(=O)c2cccnc2)cc1OCC`, the IC50 is reported as > 80 µM (inactive). For `CCOC(=O)c1ccc2nc(Nc3nc4ccc(F)cc4s3)sc2c1`, the IC50 was 20.3 µM (inactive). `Cc1cccc(NS(=O)(=O)c2ccc(-c3cnc(C4CC4)o3)cc2)c1` was tested, and the IC50 was > 80 µM (inactive). In the case of `CCCC(=O)NC(c1ccc(OC)cc1)c1ccc2cccnc2c1O` (stereo not drawn), the IC50 is reported as > 80 µM (inactive). With `Cc1cccc(N2CCN(C(=O)c3c(-c4ccccc4)noc3C)CC2)c1C` the IC50 was > 80 µM (inactive). With `Cc1cc(NC(=O)CSc2nc3c(sc4ccccc43)c(=O)n2CCCN2CCOCC2)n[nH]1` the IC50 was > 80 µM (inactive). With `COc1ccc(OCC(=O)Nc2ccccc2N2CCCCC2)cc1` the IC50 was > 80 µM (inactive). With `CCOc1ccc(Nc2cc(C)nc(-n3nc(C)cc3C)n2)cc1` the IC50 was > 80 µM (inactive). For `COc1ccccc1N1CCN(C(=O)c2cc(=O)c3cc(C)cc(C)c3o2)CC1`, the IC50 was > 80 µM (inactive). `CC#CC(=O)N1CCC(n2nccc2NC(=O)c2ccc3c(c2)OCO3)CC1` was tested, and the IC50 was > 80 µM (inactive). Molecule `C[C@]12CC[C@H]3[C@@H](CC[C@]4(O)C[C@@H](O)CC[C@]34C=O)[C@@]1(O)CC[C@@H]2C1=CC(=O)OC1` has an IC50 of 1.13 µM. In the case of `O=C(Nc1ccc(N2CCN(C(=O)c3ccc(Cl)cc3)CC2)cc1)c1ccc2c(c1)OCCO2`, the IC50 is reported as > 80 µM (inactive). `CCCOC(=O)c1[nH]c2c(c1C)C(=O)CC(c1cccs1)C2` (stereo not drawn) was tested, and the IC50 was > 80 µM (inactive). In the case of `CCOC(=O)c1ccc(Nc2nc(N)c3cc(OC)c(OC)cc3n2)cc1`, the IC50 is reported as > 80 µM (inactive). With `COc1cc(NS(=O)(=O)c2ccc(OC)c(C)c2C)c(OC)cc1Cl` the IC50 was > 80 µM (inactive). `O=C(Sc1cccc2cccnc12)c1ccccc1Br` was tested, and the IC50 was 3.61 µM. `O[C@@H]1[C@@H](O)C=C2CCN3Cc4cc5c(cc4[C@H]1C23)OCO5` (stereo partly drawn) gave an IC50 of 3.28 µM. In the case of `O=C(N/N=C\c1c(O)ccc2ccccc12)c1ccc(S(=O)(=O)N2CCCCC2)cc1`, the IC50 is reported as > 80 µM (inactive). `CCCOCCOC(=O)c1[nH]c2c(c1C)C(=O)CC(c1cc(OC)ccc1OC)C2` (stereo not drawn) was tested, and the IC50 was > 80 µM (inactive). `COc1cc(NC(=O)N2CCNC2=O)cc(C(=O)Nc2cccc(C(F)(F)F)c2)c1` was tested, and the IC50 was < 0.16 µM. For `O=C(COc1ccc(C(=O)c2ccccc2)cc1)NCc1ccc(F)cc1`, the IC50 was > 80 µM (inactive). With `CCCC1=Nc2cc(C(=O)NCCCOCC)ccc2Sc2ccccc21` the IC50 was > 80 µM (inactive). With `CN1/C(=C\C(=O)C[n+]2ccc3ccccc3c2)C(C)(C)c2ccccc21` the IC50 was > 80 µM (inactive). `Cc1ccc(C(=O)c2cc([N+](=O)[O-])ccc2N2CCCCC2)c(C)c1` was tested, and the IC50 was > 80 µM (inactive). Molecule `c1ccc(-c2cccc(-c3ccccn3)n2)nc1` has an IC50 of 6.4 µM. In the case of `CCOCCCNC(=O)c1ccc2c(c1)N=C(CC)c1cc(Br)ccc1S2`, the IC50 is reported as > 80 µM (inactive). For `Cc1ncoc1C(=O)NC1CCCc2c1cnn2-c1ccc(C(C)(C)C)cc1` (stereo not drawn), the IC50 was 69.7 µM (inactive). With `O=C(N/N=C/c1ccccc1Cl)c1[nH]c2ccc(Br)cc2c1-c1ccccc1` the IC50 was > 80 µM (inactive). For `COc1ccc(NS(=O)(=O)c2ccc(-c3cnc(C4CC4)o3)cc2)cc1OC`, the IC50 was > 80 µM (inactive). Molecule `COc1cc(C2c3cc4c(cc3C(OC3OC5COC(c6cccs6)OC5C(O)C3O)C3COC(=O)C23)OCO4)cc(OC)c1O` (stereo not drawn) has an IC50 of 3.94 µM. Work on `COc1ccc(-c2csc(NC(=O)C3CCN(c4ncnc5sc(C)c(C)c45)CC3)n2)cc1OC` yielded an IC50 of 11.6 µM. In the case of `COc1ccc([C@H]2CC(=O)C=C(c3ccc(OC)cc3OC)C2)cc1`, the IC50 is reported as > 80 µM (inactive). With `CCOc1ccc(N/C(N)=N/c2nc(CSc3nnc(C)s3)cc(=O)[nH]2)cc1` the IC50 was > 80 µM (inactive). `CN(C)S(=O)(=O)c1ccc(Nc2nc(C3CC3)nc3c2nnn3Cc2ccccc2Cl)cc1` was tested, and the IC50 was > 80 µM (inactive). With `COC(=O)c1cnc(Oc2ccc(NC(=O)NC(=O)c3c(F)cccc3Cl)cc2)cc1C(F)(F)F` the IC50 was > 80 µM (inactive). In the case of `O=C(Nc1ccc(N2CCOCC2)cc1)c1ccc(Cl)c(S(=O)(=O)N2CCCCC2)c1`, the IC50 is reported as > 80 µM (inactive). With `O=c1cc(-c2ccccc2)[nH]c2ccccc12` the IC50 was > 80 µM (inactive).
